Assay results published in patent US7531195B2, “Schisandrin B preparation” (priority 2005, dated 2009).
Marks after values point to notes of the source that are not given here.

Columns and labels:
Hsp70 = assay: Tissue Hsp70 level in young female rats (Western blot); format: in vivo, rat; conditions: 10 mg/kg daily, 15 days
Description: Female Sprague-Dawley rats (8 weeks old) were maintained under a 12-h dark/light cycle at about 22° C. and allowed food and water ad libitum. Drug treated animals received a daily bolus dose of (−) Schisandrin B, α-lipoic acid (α-LA) or α-tocopherol (α-Toc) at 10, 5 and 70 mg/kg, respectively, for 15 days. The dosages were determined with reference to the equivalent amount of crude herb prescribed for human or the daily recommended intake in health supplements. The control animals received olive oil only. Twenty-four hours after the last dose, the pentobarbital-anesthetized animals were sacrificed by cardiac excision, and brain. heart, liver and skeletal muscle tissues were obtained.
Hsp25 and Hsp70 levels was estimated by Western blot analysis using specific antibodies (anti-Hsp25, catalog #SPA-801; anti-Hsp70, catalog #SPA-812) from StressGen (Vancouver, BC, Canada) following SDS-PAGE analysis of the nuclear-free tissue homogenates, using a separating gel of 10% acrylamide as described in Ip et. al. (2001). Hsp25/27 and Hsp70 (human recombinant proteins from StressGen) and actin (bovine muscle from Sigma) were used as markers for reference. […] All immuno-blots were analyzed by densitometry, and the amounts (arbitrary units) of Hsp were normalized with reference to actin levels (arbitrary units) in the sample.

[1] = system: Isolated-Perfused Rat Heart; assay: Myocardial ischemia-reperfusion injury (LDH leakage), isolated-perfused heart of young rats; format: in vivo; conditions: 35 days
Description: Male/Female adult Sprague-Dawley rats (˜10 weeks old) were maintained under a 12-h dark/light cycle at about 22° C. and allowed food and water ad libitum. Animals were randomly divided into groups, with at least 5 animals in each. In the pretreatment groups, rats were treated intragastrically with (−) Schisandrin B at a daily dose of 1 or 10 mg/kg for 35 days. Control animals received oil only (10 ml/kg). Twenty-four hours following the last dosing, hearts were isolated from control or drug-pretreated rats and then subjected to Langendorff perfusion as described below.
The heart was excised quickly and immediately immersed in ice-cold and heparinized (50 unit/ml) saline. The aorta was cannulated and then transferred to a warm and moistured chamber of the perfusion apparatus. The heart was retrogradely perfused according to Langendorff method as described (Yim and Ko 1999).
Coronary effluent was collected in 1-min fractions at increasing time intervals during the course of equilibration and reperfusion. The fractions were immediately put on ice until assay for lactate dehydrogenase (LDH) activity. The extent of LDH leakage during the reperfusion period, an indirect index of myocardial injury, was estimated by computing the area under the curve of the graph plotting the percent LDH activity (with respect to the mean pre-ischemic value measured during the equilibration period) against the reperfusion time (1-20 min), as described (Yim and Ko 1999). Immediately after the I-R procedure, heart ventricular tissue samples were obtained for biochemical analysis.

Myocardial Mitochondria = assay: Myocardial mitochondrial glutathione antioxidant status, old male and female rats; format: in vivo, rat; conditions: liposome-encapsulated in drinking water, 10 mg/kg daily, 35 days
Description: Aged male and female rats (˜12 months old) were administered with liposome-encapsulated (−) Schisandrin B in drinking water for 35 days, with the daily dose estimated to be 10 mg/kg.
Male/Female adult Sprague-Dawley rats (˜12 months old) were maintained under a 12-h dark/light cycle at about 22° C. and allowed food and water ad libitum. Animals were randomly divided into groups, with at least 5 animals in each. In the pretreatment groups, rats were treated with liposome-encapsulated (−) Schisandrin B in drinking water for 35 days, with the estimated daily dose of 10 mg/kg. Control animals received empty liposomes-containing drinking water. Twenty-four hours following the last dosing, hearts were isolated from control or drug-pretreated rats and then subjected to Langendorff perfusion as described below.
Myocardial tissue samples were rinsed with ice-cold isotonic buffer (50 mM Tris, 0.32 M sucrose, 1 mM Na2EDTA, 0.2 mg/ml soybean trypsin inhibitor, 0.2 mg/ml bacitracine, 0.16 mg/ml benzamidine). Tissue homogenates were prepared by homogenizing 0.8 g of myocardial tissue in 8 ml ice-cold isotonic buffer and the homogenates were used for the preparation of mitochondrial fractions by differential centrifugation, as described in Chiu and Ko (2004). The mitochondrial pellets were resuspended in 1.5 ml of isotonic buffer containing 150 μl of 2 mg/ml soybean trypsin inhibitor and constituted the mitochondrial fractions.
Aliquots (500 μl) of mitochondrial fractions were taken for measuring mitochondrial GSH level by HPLC methods, using GSH as standards, respectively, as described (Chiu et al 2002). Aliquots (400 μl) of mitochondrial fractions were mixed with 933 μl Triton X-100 solution (0.3%, v/v, in isotonic buffer) and sonicated for 2 min on ice. The mixtures were then subjected to measurements of mitochondrial glutathione reductase (GRD), Se-glutathione peroxidase (GPX) and glutathione S-transferases (GST) activities by spectrophotometric methods, as described in Chiu et al. (2002).

How did the “Heat Shock Protein Level, Hsp70” value (Hsp70; BRAIN) turn out when COc1cc2c(c(OC)c1OC)-c1c(cc3c(c1OC)OCO3)CC(C)C(C)C2 (single isomer, unassigned; (-)) [(−) Sch B, (−) Schisandrin B] was run?
Its value is 0.49 ± 0.05 AU.

What about the “Hsp70 level, percent increase vs untreated control” value (“Hsp70 level, percent increase” for short) (Hsp70; BRAIN) of the same compound?
The value was “(77%)”.

And the “Heat Shock Protein Level, Hsp70” value (Hsp70; HEART)?
The value was 0.71 ± 0.03 AU.

And the “Hsp70 level, percent increase” value (Hsp70; HEART)?
The value was “(17%)”.

And the “Heat Shock Protein Level, Hsp70” value (Hsp70; LIVER)?
The value was 0.69 ± 0.001 AU.

What about the “Hsp70 level, percent increase” value (Hsp70; LIVER) of the same compound?
Its value is “(45%)”.

What about the “Heat Shock Protein Level, Hsp70” value (Hsp70; SKELETAL MUSCLE) of the same compound?
Its value is 0.69 ± 0.07 AU.

And the “Hsp70 level, percent increase” value (Hsp70; SKELETAL MUSCLE)?
The value was “(57%)”.

And the “LDH Leakage” value ([1]; I-R, female, 1 mg/kg daily)?
The value was 2861 ± 70.6^b AU.

And the “LDH Leakage, percent protection vs unpretreated control” value (from here on “LDH Leakage, percent protection”) ([1]; I-R, female, 1 mg/kg daily)?
Its value is “(31%)”.

What about the “LDH Leakage” value ([1]; I-R, female, 10 mg/kg daily) of the same compound?
Its value is 2023 ± 83.1^b AU.

And the “LDH Leakage, percent protection” value ([1]; I-R, female, 10 mg/kg daily)?
Its value is “(60%)”.

What about the “LDH Leakage” value ([1]; I-R, male, 1 mg/kg daily) of the same compound?
Its value is 3638 ± 125^a AU.

What about the “LDH Leakage, percent protection” value ([1]; I-R, male, 1 mg/kg daily) of the same compound?
The value was “(37%)”.

What about the “LDH Leakage” value ([1]; I-R, male, 10 mg/kg daily) of the same compound?
Its value is 2775 ± 55.8^a AU.

What about the “LDH Leakage, percent protection” value ([1]; I-R, male, 10 mg/kg daily) of the same compound?
The value was “(57%)”.

What about the “LDH Leakage” value ([1]; NON-I-R, female, 1 mg/kg daily) of the same compound?
Its value is 776 ± 22.1 AU.

And the “LDH Leakage” value ([1]; NON-I-R, female, 10 mg/kg daily)?
The value was 813 ± 14.0 AU.

And the “LDH Leakage” value ([1]; NON-I-R, male, 1 mg/kg daily)?
Its value is 804 ± 18.0 AU.

What about the “LDH Leakage” value ([1]; NON-I-R, male, 10 mg/kg daily) of the same compound?
Its value is 820 ± 13.8 AU.

What about the GPX (Myocardial Mitochondria; old female rats (~12 months)) of the same compound?
Its GPX is 44.6 ± 4.29 mU/mg Protein.

What about the GRD (Myocardial Mitochondria; old female rats (~12 months)) of the same compound?
The GRD was 5.65 ± 0.65 mU/mg protein.

And the GSH (Myocardial Mitochondria; old female rats (~12 months))?
The GSH was 6.80 ± 0.28^b nmol/mg protein.

What about the GST (Myocardial Mitochondria; old female rats (~12 months)) of the same compound?
Its GST is 14.0 ± 0.45^b mU/mg protein.

What about the “GRD, percent increase vs untreated control” value (Myocardial Mitochondria; old female rats) of the same compound?
Its value is “(13%)”.

What about the “GSH, percent increase vs untreated control” value (Myocardial Mitochondria; old female rats) of the same compound?
The value was “(31%)”.

And the GPX (Myocardial Mitochondria; old male rats (~12 months))?
Its GPX is 52.2 ± 0.72^a mU/mg Protein.

What about the GRD (Myocardial Mitochondria; old male rats (~12 months)) of the same compound?
The GRD was 3.72 ± 0.29^a mU/mg protein.

And the GSH (Myocardial Mitochondria; old male rats (~12 months))?
The GSH was 4.43 ± 0.09^a nmol/mg protein.

What about the GST (Myocardial Mitochondria; old male rats (~12 months)) of the same compound?
Its GST is 17.5 ± 0.76 mU/mg protein.

What about the “GPX, percent increase vs untreated control” value (Myocardial Mitochondria; old male rats) of the same compound?
The value was “(15%)”.

And the “GRD, percent increase vs untreated control” value (Myocardial Mitochondria; old male rats)?
The value was “(39%)”.

What about the “GSH, percent increase vs untreated control” value (Myocardial Mitochondria; old male rats) of the same compound?
Its value is “(265%)”.
